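The compound was tested at five concentrations on cells cultured in 96-well plates, with a 48-hour exposure period. The concentration for 50% growth inhibition is given as GI50. TGI marks complete inhibition of growth.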
Columns and labels:
Assay in all cases: NCI anticancer screen, dose series, 48 h
[1] = tested on: NCI-H460 lung
[2] = tested on: NCI-H226 lung
[3] = tested on: HCC-2998 colon
[4] = tested on: SR leukemia
[5] = tested on: SK-MEL-28 melanoma
[6] = tested on: UACC-62 melanoma
[7] = tested on: A498 renal
[8] = tested on: HCT-116 colon
[9] = tested on: SK-OV-3 ovarian
[10] = tested on: OVCAR-5 ovarian
[11] = tested on: LOX IMVI melanoma
[12] = tested on: RXF 393 renal
[13] = tested on: UACC-257 melanoma
[14] = tested on: MDA-MB-231 breast
[15] = tested on: SK-MEL-2 melanoma
[16] = tested on: PC-3 prostate
[17] = tested on: HCT-15 colon
[18] = tested on: NCI/ADR-RES ovarian
[19] = tested on: UO-31 renal
[20] = tested on: K-562 leukemia
[21] = tested on: MDA-MB-435
[22] = tested on: SF-539 CNS
[23] = tested on: M14 melanoma
[24] = tested on: SK-MEL-5 melanoma
[25] = tested on: HT29 colon
[26] = tested on: COLO 205 colon
[27] = tested on: SNB-19 CNS
[28] = tested on: 786-0 renal
[29] = tested on: T-47D breast
[30] = tested on: MCF7 breast
[31] = tested on: BT-549 breast
[32] = tested on: MDA-MB-468 breast
[33] = tested on: CAKI-1 renal
[34] = tested on: DU-145 prostate
[35] = tested on: SF-268 CNS
[36] = tested on: CCRF-CEM leukemia
[37] = tested on: OVCAR-8 ovarian
[38] = tested on: SNB-75 CNS
[39] = tested on: HS 578T breast
[40] = tested on: OVCAR-3 ovarian
[41] = tested on: KM12 colon
[42] = tested on: U251 CNS
[43] = tested on: EKVX NSCLC
[44] = tested on: SN12C renal
[45] = tested on: A549 NSCLC
[46] = tested on: IGROV1 ovarian
[47] = tested on: HOP-62 NSCLC
[48] = tested on: HOP-92 NSCLC
[49] = tested on: MOLT-4 leukemia
[50] = tested on: SW-620 colon
[51] = tested on: NCI-H522 lung
[52] = tested on: RPMI-8226 leukemia
[53] = tested on: OVCAR-4 ovarian
[54] = tested on: HL-60(TB) leukemia
[55] = tested on: MALME-3M melanoma
[56] = tested on: TK-10 renal
[57] = tested on: SF-295 CNS
[58] = tested on: ACHN renal
[59] = tested on: NCI-H23 lung

What does the source list for `CCCCN1C(=O)/C(=C\C(=O)c2cc3ccccc3oc2=O)c2ccccc21`?
GI50 [1]: > 100 µM; TGI [1]: > 100 µM; GI50 [2]: 14.4 µM; TGI [2]: 31.7 µM; GI50 [3]: > 100 µM; TGI [3]: > 100 µM; GI50 [4]: 23 µM; TGI [4]: 86.1 µM; GI50 [5]: 15.5 µM; TGI [5]: 29.1 µM; GI50 [6]: 14.6 µM; TGI [6]: 29.7 µM; GI50 [7]: > 100 µM; TGI [7]: > 100 µM; GI50 [8]: 16.3 µM; TGI [8]: 31.1 µM; GI50 [9]: > 100 µM; TGI [9]: > 100 µM; GI50 [10]: 30.6 µM; TGI [10]: > 100 µM; GI50 [11]: 15.2 µM; TGI [11]: 28.7 µM; GI50 [12]: 15.7 µM; TGI [12]: 29.6 µM; GI50 [13]: 14.7 µM; TGI [13]: 31.3 µM; GI50 [14]: 14.3 µM; TGI [14]: 27.6 µM; GI50 [15]: 52 µM; TGI [15]: > 100 µM; GI50 [16]: 32.2 µM; TGI [16]: > 100 µM; GI50 [17]: 15.6 µM; TGI [17]: 30.7 µM; GI50 [18]: 22.9 µM; TGI [18]: 64.3 µM; GI50 [19]: 11.4 µM; TGI [19]: 23.7 µM; GI50 [20]: 11.6 µM; TGI [20]: 84.7 µM; GI50 [21]: 17.6 µM; TGI [21]: 41.6 µM; GI50 [22]: 16.2 µM; TGI [22]: 30 µM; GI50 [23]: 14.8 µM; TGI [23]: 29.3 µM; GI50 [24]: 48.7 µM; TGI [24]: > 100 µM; GI50 [25]: 20.3 µM; TGI [25]: 41.2 µM; GI50 [26]: 17 µM; TGI [26]: 31.1 µM; GI50 [27]: > 100 µM; TGI [27]: > 100 µM; GI50 [28]: 18 µM; TGI [28]: 31.9 µM; GI50 [29]: 14 µM; TGI [29]: 28.7 µM; GI50 [30]: 12.6 µM; TGI [30]: 28.7 µM; GI50 [31]: 19.4 µM; TGI [31]: 70.1 µM; GI50 [32]: 4.5 µM; TGI [32]: 17.8 µM; GI50 [33]: 14.2 µM; TGI [33]: 27.8 µM; GI50 [34]: 16.7 µM; TGI [34]: 33.2 µM; GI50 [35]: 16.9 µM; TGI [35]: 36.3 µM; GI50 [36]: 4.26 µM; TGI [36]: 24.2 µM; GI50 [37]: 18.3 µM; TGI [37]: 47.5 µM; GI50 [38]: 19 µM; TGI [38]: > 100 µM; GI50 [39]: 20.7 µM; TGI [39]: > 100 µM; GI50 [40]: 15.2 µM; TGI [40]: 29.7 µM; GI50 [41]: > 100 µM; TGI [41]: > 100 µM; GI50 [42]: > 100 µM; TGI [42]: > 100 µM; GI50 [43]: 15.5 µM; TGI [43]: 32 µM; GI50 [44]: 14.7 µM; TGI [44]: 30 µM; GI50 [45]: > 100 µM; TGI [45]: > 100 µM; GI50 [46]: 24.5 µM; TGI [46]: 94.8 µM; GI50 [47]: > 100 µM; TGI [47]: > 100 µM; GI50 [48]: 13 µM; TGI [48]: 27.7 µM; GI50 [49]: 22.4 µM; TGI [49]: 64 µM; GI50 [50]: 14.3 µM; TGI [50]: 29.7 µM; GI50 [51]: 14.3 µM; TGI [51]: 28.7 µM; GI50 [52]: 19.9 µM; TGI [52]: 54.4 µM; GI50 [53]: 16.9 µM; TGI [53]: 35.4 µM; GI50 [54]: 3.06 µM; TGI [54]: 11.9 µM; GI50 [55]: 13.7 µM; TGI [55]: 26.7 µM; GI50 [56]: 20.9 µM; TGI [56]: 35.8 µM; GI50 [57]: > 100 µM; TGI [57]: > 100 µM; GI50 [58]: 13.4 µM; TGI [58]: 26.1 µM; GI50 [59]: 27.4 µM; TGI [59]: > 100 µM

— PubChem BioAssay (NCI)
